Results on 14 compounds are retold here after patent publication US9249129B2, “Morpholino substituted urea derivatives as mTOR inhibitors” (CELLZOME LIMITED, priority 2010, dated 2016).

Test [1] relates to Akt serine-473 phosphorylation in HEK293T/17 cells. Description: In vitro phospho-Akt cellular assay (pAkt S473). The note with it: Homo sapiens, Table 6, 2 hours, Akt Ser473, read-out: pAKT (Phospho-Akt cell assay data, activity level). It is filed as cell-based. The source says: In Vitro Phospho-S6 and Phospho-Akt Cellular Assay
Activation of mTOR signaling results in phosphorylation of several downstream targets. In cells, mTOR exists in two different protein complexes. The mTOR Complex-1 (mTORC1) phosphorylates and activates S6 Kinase 1 (S6K1) and S6 Kinase 2 (S6K2) (also known as p70S6K) which then phosphorylate S6 Ribosomal Protein (S6RP) (also known as RPS6). S6RP is phosphorylated on serine 235, serine 236, serine 240 and serine 244 by both pS6K1 and pS6K2. The mTOR Complex-2 (mTORC2) phosphorylates AKT on serine 473 which activates the AKT signaling pathway.
The assay measures a test compound's inhibition of S6RP serine-240/244 phosphorylation and inhibition of Akt serine-473 phosphorylation in human embryonic kidney derived HEK293T/17 cells (ATCC CRL-11268).
The HEK293T/17 cell line is maintained in DMEM media (Invitrogen catalogue number 41965-039) supplemented with 10% FCS at 37° C. in a 5% CO2 humidified incubator.
Cells are seeded in 96-well plates at 40,000 cells/well (pS6RP S240/244 assay) or 80,000 cells/well (pAkt 5473 assay) in 90 μl growth media (DMEM, 2% FCS). Plates are incubated for 1 hour in a humidified incubator to allow the cells to adhere. Cells are treated with 8 concentrations of test compounds or DMSO alone for controls (final DMSO concentration 0.1%) and incubated at 37° C. for 2 hours. Then 20 μl of 5× concentrated lysis buffer (750 mM NaCl, 100 mM Tris pH7.4, 5 mM EDTA, 5 mM EGTA, 5% Triton X-100) is added, plates are sealed and incubated for 15 minutes at 4° C. with gentle shaking. After cell lysis, 25 μl cell lysate is transferred to a MesoScale plate coated with an antibody to pS6RP Ser240/244 (MesoScale Discovery K150DGD-3) or an antibody to pAkt Ser 473 (MesoScale Discovery K151DGD-3). Plates have been blocked before by incubation with 150 μl MesoScale Discovery Blocking Solution-A for 1 hour at room temperature followed by washing with 150 μl 1× Tris wash buffer per well. After the transfer of the cell lysate to the MSD plate, the pS6RP (or pAkt) protein is captured on the coated antibody by incubation at room temperature for 1 hour with gentle shaking. After the capture step the plate is washed three times with 150 μl of 1× Tris wash buffer per well. Then 25 μl detection antibody conjugated with a Sulfo-Tag is added and incubated for 1 hour at room temperature with gentle shaking. Subsequently the antibody solution is removed and the plate is washed 3 times with 150 μl 1× Tris wash buffer per well and 150 μl Read buffer is added. The plates are analysed on a MSD 2400 Plate Reader (MesoScale Discovery). Data analysis is performed using nonlinear regression for a sigmoidal dose-response with a variable slope.

For the next test, the target named is T1, PI3Kγ (Homo sapiens, UniProt P48736).
T1 construct: endogenous in cells; host or cells: Jurkat cells (ATCC TIB-152) lysate, the only lysate described
T1 sequence (P48736 whole entry): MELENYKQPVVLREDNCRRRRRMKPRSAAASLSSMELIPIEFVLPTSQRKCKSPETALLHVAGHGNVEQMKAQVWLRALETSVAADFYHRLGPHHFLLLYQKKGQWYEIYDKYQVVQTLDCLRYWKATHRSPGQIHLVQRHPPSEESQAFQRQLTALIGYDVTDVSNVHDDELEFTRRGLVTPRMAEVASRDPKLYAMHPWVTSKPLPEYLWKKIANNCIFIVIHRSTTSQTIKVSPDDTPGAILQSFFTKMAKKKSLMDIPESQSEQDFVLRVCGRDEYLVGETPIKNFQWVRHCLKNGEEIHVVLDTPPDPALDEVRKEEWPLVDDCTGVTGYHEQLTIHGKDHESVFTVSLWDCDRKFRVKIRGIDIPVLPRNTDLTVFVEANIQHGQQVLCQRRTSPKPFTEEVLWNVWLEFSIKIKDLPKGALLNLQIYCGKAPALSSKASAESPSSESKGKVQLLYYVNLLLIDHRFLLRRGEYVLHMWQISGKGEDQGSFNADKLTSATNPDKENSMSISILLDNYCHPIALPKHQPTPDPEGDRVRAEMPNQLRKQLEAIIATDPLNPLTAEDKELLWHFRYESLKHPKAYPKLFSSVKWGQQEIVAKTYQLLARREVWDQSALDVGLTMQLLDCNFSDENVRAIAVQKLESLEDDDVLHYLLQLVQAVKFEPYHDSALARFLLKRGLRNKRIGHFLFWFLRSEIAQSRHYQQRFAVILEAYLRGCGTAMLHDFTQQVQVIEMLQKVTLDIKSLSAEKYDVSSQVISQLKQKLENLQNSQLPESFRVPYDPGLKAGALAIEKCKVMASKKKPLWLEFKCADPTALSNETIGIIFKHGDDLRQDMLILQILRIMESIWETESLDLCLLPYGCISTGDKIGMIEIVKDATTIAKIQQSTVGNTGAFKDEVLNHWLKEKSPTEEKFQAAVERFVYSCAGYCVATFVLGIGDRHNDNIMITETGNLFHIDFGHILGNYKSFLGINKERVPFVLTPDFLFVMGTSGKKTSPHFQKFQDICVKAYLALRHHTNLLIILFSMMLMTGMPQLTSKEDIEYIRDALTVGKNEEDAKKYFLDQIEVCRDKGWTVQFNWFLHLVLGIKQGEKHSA
In words: kinobeads assay, PI3K gamma (dot blot detection). It is filed as binding. To be noted: Table 4, read-out: Inhibition values (IC50) PI3Kg.

The target of test [2] is T2, kinases (kinome) (Homo sapiens, UniProt P53667).
T2 construct: determined in kinobeads assays with mass spectrometry detection of kinases as described previously; endogenous in cells; host or cells: cell lysate
T2 sequence (P53667 whole entry): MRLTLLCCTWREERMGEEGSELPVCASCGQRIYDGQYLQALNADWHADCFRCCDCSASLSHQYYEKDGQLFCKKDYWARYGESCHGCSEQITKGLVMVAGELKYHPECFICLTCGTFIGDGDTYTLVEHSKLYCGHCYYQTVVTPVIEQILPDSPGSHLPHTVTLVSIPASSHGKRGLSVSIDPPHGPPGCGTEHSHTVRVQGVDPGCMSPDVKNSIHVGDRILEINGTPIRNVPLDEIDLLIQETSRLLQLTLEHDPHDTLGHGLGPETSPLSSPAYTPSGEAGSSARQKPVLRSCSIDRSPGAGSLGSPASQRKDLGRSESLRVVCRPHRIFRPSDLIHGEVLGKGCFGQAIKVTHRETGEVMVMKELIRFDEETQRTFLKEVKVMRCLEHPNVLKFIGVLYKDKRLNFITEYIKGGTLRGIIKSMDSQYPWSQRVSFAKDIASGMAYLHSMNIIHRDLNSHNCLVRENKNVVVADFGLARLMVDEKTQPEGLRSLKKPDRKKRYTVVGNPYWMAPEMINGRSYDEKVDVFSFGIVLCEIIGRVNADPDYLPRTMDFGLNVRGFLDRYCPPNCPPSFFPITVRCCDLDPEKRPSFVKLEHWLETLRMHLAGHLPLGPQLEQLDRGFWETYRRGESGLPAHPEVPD
In words: kinobeads assay with mass spectrometry detection of kinases (kinase selectivity profile). It is filed as binding. The note with it: LIMK1 (TKL), IPI00291702. The source says: (§1) The protein kinase complement of the human genome (the kinome) was described previously (Manning et al., 2002. Science 298(5600):1912-1934). Sequence accession numbers are defined by the International Protein Index (IPI) (Kersey et al., 2004. Proteomics 4(7):1985-1988).

Test [3] addresses T3, kinases (kinome) (Homo sapiens, UniProt P49840).
T3 construct: determined in kinobeads assays with mass spectrometry detection of kinases as described previously; endogenous in cells; host or cells: cell lysate
Described as above. It is filed as binding. To be noted: GSK3A (CMGC), IPI00292228.
Excerpt: as §1

The target in test [4] is T4, kinases (kinome) (Homo sapiens, UniProt Q96RR4).
T4 construct: determined in kinobeads assays with mass spectrometry detection of kinases as described previously; endogenous in cells; host or cells: cell lysate
T4 sequence (Q96RR4 whole entry): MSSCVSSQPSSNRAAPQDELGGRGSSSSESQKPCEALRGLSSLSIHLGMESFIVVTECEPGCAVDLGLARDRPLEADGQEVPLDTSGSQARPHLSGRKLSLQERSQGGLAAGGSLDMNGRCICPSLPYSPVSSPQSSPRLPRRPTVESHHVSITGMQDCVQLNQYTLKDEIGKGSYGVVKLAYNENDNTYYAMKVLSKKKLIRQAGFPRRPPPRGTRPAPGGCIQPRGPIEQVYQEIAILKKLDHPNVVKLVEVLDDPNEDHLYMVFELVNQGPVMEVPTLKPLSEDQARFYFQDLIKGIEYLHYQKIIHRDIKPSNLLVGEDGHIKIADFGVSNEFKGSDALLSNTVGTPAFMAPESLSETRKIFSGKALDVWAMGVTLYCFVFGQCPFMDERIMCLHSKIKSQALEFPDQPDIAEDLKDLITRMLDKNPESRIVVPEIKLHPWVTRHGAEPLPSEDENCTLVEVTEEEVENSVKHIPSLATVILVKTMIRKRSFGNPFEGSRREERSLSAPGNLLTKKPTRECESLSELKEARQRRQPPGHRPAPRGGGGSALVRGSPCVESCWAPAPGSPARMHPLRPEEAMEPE
The description is as above. To be noted: CaMKK2 (Other), IPI00290239. The format is binding.
Excerpt: as §1

The target of test [5] is T5, kinases (kinome) (Homo sapiens, UniProt P42345).
T5 construct: determined in kinobeads assays with mass spectrometry detection of kinases as described previously; endogenous in cells; host or cells: cell lysate
The test is described as above. The format is binding. The note with it: mTOR (Atypical), IPI00031410; 0.1 μM ranges.
Excerpt: as §1

The target in test [6] is T6, kinases (kinome) (Homo sapiens, UniProt Q00534).
T6 construct: determined in kinobeads assays with mass spectrometry detection of kinases as described previously; endogenous in cells; host or cells: cell lysate
T6 sequence (Q00534 whole entry): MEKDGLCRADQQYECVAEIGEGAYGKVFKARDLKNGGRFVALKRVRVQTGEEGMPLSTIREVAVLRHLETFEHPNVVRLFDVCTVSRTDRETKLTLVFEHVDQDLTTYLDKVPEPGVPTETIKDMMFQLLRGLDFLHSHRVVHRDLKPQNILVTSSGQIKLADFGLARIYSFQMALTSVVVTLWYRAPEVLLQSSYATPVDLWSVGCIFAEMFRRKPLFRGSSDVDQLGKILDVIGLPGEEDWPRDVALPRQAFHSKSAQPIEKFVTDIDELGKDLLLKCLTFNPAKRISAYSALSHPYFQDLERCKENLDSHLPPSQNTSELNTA
Described as above. It is filed as binding. The note with it: CDK6 (CMGC), IPI00023529.
Excerpt: as §1

The target of test [7] is T7, kinases (kinome) (Homo sapiens, UniProt Q14680).
T7 construct: determined in kinobeads assays with mass spectrometry detection of kinases as described previously; endogenous in cells; host or cells: cell lysate
T7 sequence (Q14680 whole entry): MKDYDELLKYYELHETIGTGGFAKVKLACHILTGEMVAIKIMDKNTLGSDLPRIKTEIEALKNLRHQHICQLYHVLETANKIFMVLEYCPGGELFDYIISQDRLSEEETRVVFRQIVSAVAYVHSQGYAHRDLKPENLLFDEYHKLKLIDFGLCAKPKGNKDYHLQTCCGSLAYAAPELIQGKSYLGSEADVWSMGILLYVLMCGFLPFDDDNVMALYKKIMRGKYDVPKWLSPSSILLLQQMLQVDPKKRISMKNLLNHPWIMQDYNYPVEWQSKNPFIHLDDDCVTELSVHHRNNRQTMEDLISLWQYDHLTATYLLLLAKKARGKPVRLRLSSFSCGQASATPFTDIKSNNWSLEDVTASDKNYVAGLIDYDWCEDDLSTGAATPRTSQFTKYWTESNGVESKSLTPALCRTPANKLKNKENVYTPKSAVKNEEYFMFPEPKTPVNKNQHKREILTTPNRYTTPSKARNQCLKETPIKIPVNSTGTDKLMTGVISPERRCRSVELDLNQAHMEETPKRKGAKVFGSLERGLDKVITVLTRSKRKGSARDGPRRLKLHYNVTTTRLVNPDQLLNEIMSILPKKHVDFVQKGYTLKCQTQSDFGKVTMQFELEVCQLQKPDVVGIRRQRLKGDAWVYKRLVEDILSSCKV
The test is described as above. The format is binding. The note with it: MELK (CAMK), IPI00006471.
Excerpt: as §1

Test [8] addresses T8, kinases (kinome) (Homo sapiens, UniProt Q9UHD2).
T8 construct: determined in kinobeads assays with mass spectrometry detection of kinases as described previously; endogenous in cells; host or cells: cell lysate
T8 sequence (Q9UHD2 1-729): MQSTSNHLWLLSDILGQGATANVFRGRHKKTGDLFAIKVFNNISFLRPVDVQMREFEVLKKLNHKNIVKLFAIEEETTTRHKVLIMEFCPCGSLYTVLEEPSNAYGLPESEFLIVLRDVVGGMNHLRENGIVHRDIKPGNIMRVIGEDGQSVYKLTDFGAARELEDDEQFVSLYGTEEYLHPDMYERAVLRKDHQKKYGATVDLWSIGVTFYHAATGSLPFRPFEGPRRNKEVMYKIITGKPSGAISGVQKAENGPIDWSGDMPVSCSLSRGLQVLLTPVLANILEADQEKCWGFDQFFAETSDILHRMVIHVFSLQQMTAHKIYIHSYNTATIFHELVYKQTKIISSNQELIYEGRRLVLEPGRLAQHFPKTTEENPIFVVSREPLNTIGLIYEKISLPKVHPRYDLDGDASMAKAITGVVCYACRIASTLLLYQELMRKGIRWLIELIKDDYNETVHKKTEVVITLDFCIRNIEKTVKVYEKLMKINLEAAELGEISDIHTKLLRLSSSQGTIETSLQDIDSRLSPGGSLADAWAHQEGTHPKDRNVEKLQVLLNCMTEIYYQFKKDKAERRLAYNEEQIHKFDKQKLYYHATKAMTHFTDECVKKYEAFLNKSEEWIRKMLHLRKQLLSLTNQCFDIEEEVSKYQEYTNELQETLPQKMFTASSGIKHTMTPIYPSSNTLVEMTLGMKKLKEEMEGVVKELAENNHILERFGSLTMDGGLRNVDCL
The test is described as above. It is filed as binding. To be noted: TBK1 (Other), IPI00293613.
Excerpt: as §1

For test [9], the target named is T9, kinases (kinome) (Homo sapiens, UniProt Q9Y4K4).
T9 construct: determined in kinobeads assays with mass spectrometry detection of kinases as described previously; endogenous in cells; host or cells: cell lysate
T9 sequence (Q9Y4K4 whole entry): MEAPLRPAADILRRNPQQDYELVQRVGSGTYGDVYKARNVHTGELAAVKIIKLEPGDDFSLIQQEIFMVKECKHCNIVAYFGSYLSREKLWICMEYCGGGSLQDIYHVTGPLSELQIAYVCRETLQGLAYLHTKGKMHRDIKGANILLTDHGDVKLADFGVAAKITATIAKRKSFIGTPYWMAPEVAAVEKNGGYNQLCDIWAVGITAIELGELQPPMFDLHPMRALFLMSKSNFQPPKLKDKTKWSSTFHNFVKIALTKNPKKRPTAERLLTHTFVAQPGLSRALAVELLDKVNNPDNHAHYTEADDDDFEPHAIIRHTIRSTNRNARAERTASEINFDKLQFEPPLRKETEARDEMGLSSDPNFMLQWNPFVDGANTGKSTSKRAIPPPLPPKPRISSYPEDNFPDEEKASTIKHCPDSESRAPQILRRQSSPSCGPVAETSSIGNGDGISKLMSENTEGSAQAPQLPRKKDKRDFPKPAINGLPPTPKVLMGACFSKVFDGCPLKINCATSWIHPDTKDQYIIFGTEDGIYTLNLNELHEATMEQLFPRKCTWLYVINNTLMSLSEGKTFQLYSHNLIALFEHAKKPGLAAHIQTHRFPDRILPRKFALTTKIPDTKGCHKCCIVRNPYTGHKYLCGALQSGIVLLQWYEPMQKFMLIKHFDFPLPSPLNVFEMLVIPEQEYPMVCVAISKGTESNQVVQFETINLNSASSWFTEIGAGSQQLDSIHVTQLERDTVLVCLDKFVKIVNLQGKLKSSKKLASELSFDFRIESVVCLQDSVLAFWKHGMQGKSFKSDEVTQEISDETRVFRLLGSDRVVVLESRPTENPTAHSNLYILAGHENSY
The description is as above. The format is binding. To be noted: KHS1 (STE), IPI00294842.
Excerpt: as §1

T3 sequence (P49840 whole entry): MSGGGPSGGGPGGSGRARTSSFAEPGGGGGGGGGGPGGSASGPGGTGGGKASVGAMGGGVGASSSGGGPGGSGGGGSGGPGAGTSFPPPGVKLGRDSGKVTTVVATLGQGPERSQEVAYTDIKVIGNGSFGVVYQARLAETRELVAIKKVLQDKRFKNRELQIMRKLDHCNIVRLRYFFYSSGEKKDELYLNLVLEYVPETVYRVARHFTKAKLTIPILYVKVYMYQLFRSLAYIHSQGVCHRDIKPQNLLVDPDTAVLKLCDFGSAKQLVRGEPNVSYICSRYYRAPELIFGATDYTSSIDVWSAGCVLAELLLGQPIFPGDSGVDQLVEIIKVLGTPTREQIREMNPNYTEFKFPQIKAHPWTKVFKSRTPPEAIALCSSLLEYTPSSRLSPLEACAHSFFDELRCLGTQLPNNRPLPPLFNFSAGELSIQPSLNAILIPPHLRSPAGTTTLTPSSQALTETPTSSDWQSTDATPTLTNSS

For the compound `C[C@H]1COCCN1c1nc(-c2ccc(NC(=O)NCCCO)cc2)cc(-c2cc(F)ccc2S(C)(=O)=O)n1` [Example 64, (S)-1-(4-(6-(5-fluoro-2-(methylsulfonyl)phenyl)-2-(3-methylmorpholino)pyrimidin-4-yl)phenyl)-3-(3-hydroxypropyl)urea], the IC50 in test [1] is below 0.1 µM; at PI3Kγ, at least 10 µM.
In the case of `C[C@H]1COCCN1c1nc(-c2ccc(NC(=O)NC3CC3)cc2)cc(-c2cccnc2S(C)(=O)=O)n1` [Example 46, (S)-1-cyclopropyl-3-(4-(2-(3-methylmorpholino)-6-(2-(methylsulfonyl)pyridin-3-yl)pyrimidin-4-yl)phenyl)urea], the IC50 is above 10 µM against kinases (kinome) [2]; above 10 µM at kinases (kinome) [3]; above 10 µM at kinases (kinome) [4]; 0.2 to 0.3 µM against kinases (kinome) [5]; above 10 µM on kinases (kinome) [6]; above 10 µM against kinases (kinome) [7]. Further, the IC50 against kinases (kinome) [8] is above 10 µM; against kinases (kinome) [9], above 10 µM; in test [1], below 0.1 µM; at PI3Kγ, at least 10 µM.
With `CS(=O)(=O)c1ccc(F)cc1-c1cc(-c2ccc(NC(=O)NCCO)cc2)nc(N2CCOCC2)n1` [Example 62, 1-(4-(6-(5-fluoro-2-(methylsulfonyl)phenyl)-2-morpholinopyrimidin-4-yl)phenyl)-3-(2-hydroxyethyl)urea], the IC50 was below 0.1 µM in test [1] and at least 10 µM at PI3Kγ.
Consider `C[C@H]1COCCN1c1nc(-c2ccc(NC(=O)NC3CC3)cc2)cc(-c2ccccc2S(C)(=O)=O)n1` [Example 4, (S)-1-cyclopropyl-3-(4-(2-(3-methylmorpholino)-6-(2-(methylsulfonyl)phenyl)pyrimidin-4-yl)phenyl)urea], for which the IC50 at kinases (kinome) [2] was above 10 µM; against kinases (kinome) [3], above 10 µM; against kinases (kinome) [4], above 10 µM; at kinases (kinome) [5], 0.3 to 0.4 µM; against kinases (kinome) [6] it was above 10 µM; against kinases (kinome) [7], above 10 µM. Also, the IC50 against kinases (kinome) [8] is above 10 µM; against kinases (kinome) [9], above 10 µM; on PI3Kγ it was at least 10 µM.
Take `C[C@H]1COCCN1c1cc(-c2ccc(F)nc2)nc(-c2ccc(NC(=O)NC3CC3)cc2)n1` [Example 21, (S)-1-cyclopropyl-3-(4-(4-(6-fluoropyridin-3-yl)-6-(3-methylmorpholino)pyrimidin-2-yl)phenyl)urea]: the IC50 is 0.1 to 1 µM in [1] and at least 10 µM at PI3Kγ.
As to `CCNC(=O)Nc1ccc(-c2cc(-c3ccccc3C#N)nc(N3CCOC[C@@H]3C)n2)cc1` [Example 8, (S)-1-(4-(6-(2-cyanophenyl)-2-(3-methylmorpholino)pyrimidin-4-yl)phenyl)-3-ethylurea], the IC50 on kinases (kinome) [2] is above 10 µM; against kinases (kinome) [3] it was above 10 µM; at kinases (kinome) [4], above 10 µM; at kinases (kinome) [5], 0.1 to 0.2 µM; on kinases (kinome) [7] it was above 10 µM; at kinases (kinome) [8], above 10 µM. At kinases (kinome) [9], this compound gave an IC50 above 10 µM.
Take `C[C@H]1COCCN1c1nc(-c2ccc(NC(=O)NCCO)cc2)cc(-c2cc(F)ccc2S(C)(=O)=O)n1` [Example 41, (S)-1-(4-(6-(5-fluoro-2-(methylsulfonyl)phenyl)-2-(3-methylmorpholino)pyrimidin-4-yl)phenyl)-3-(2-hydroxyethyl)urea]: the IC50 was below 0.1 µM in test [1] and at least 10 µM at PI3Kγ.
For `C[C@H]1COCCN1c1cc(-c2cncc(F)c2)nc(-c2ccc(NC(=O)NC3CC3)cc2)n1` [Example 23, (S)-1-cyclopropyl-3-(4-(4-(5-fluoropyridin-3-yl)-6-(3-methylmorpholino)pyrimidin-2-yl)phenyl)urea], the IC50 is below 0.1 µM in [1] and at least 10 µM on PI3Kγ.
The matching figures for `C[C@H]1COCCN1c1nc(-c2ccc(NC(=O)NCCF)cc2)cc(-c2cc(F)ccc2S(C)(=O)=O)n1` [Example 44, (S)-1-(4-(6-(5-fluoro-2-(methylsulfonyl)phenyl)-2-(3-methylmorpholino)pyrimidin-4-yl)phenyl)-3-(2-fluoroethyl)urea]: below 0.1 µM and at least 10 µM.
For the compound `O=C(Nc1ccncc1)Nc1ccc(-c2nccc(N3CC4CCC(C3)O4)n2)cc1` [Example 61, 1-(4-(4-(8-oxa-3-azabicyclo[3.2.1]octan-3-yl)pyrimidin-2-yl)phenyl)-3-(pyridin-4-yl)urea], the IC50 in test [1] was below 0.1 µM; at PI3Kγ it was at least 10 µM.
For `CCNC(=O)Nc1ccc(-c2cc(-c3cc(F)ccc3S(C)(=O)=O)nc(N3CCOC[C@@H]3C)n2)cc1` [Example 2, (S)-1-ethyl-3-(4-(6-(5-fluoro-2-(methylsulfonyl)phenyl)-2-(3-methylmorpholino)pyrimidin-4-yl)phenyl)urea] the same measures were below 0.1 µM and at least 10 µM.
The matching figures for `C[C@H]1COCCN1c1ccnc(-c2ccc(NC(=O)Nc3ccncc3)cc2)n1` [Example 60, (S)-1-(4-(4-(3-methylmorpholino)pyrimidin-2-yl)phenyl)-3-(pyridin-4-yl)urea]: below 0.1 µM and at least 10 µM.
Take `C[C@H]1COCCN1c1cc(-c2ccccn2)nc(-c2ccc(NC(=O)NC3CC3)cc2)n1` [Example 42, (S)-1-cyclopropyl-3-(4-(4-(3-methylmorpholino)-6-(pyridin-2-yl)pyrimidin-2-yl)phenyl)urea]: the values for the IC50 (in [1]; at PI3Kγ) were below 0.1 µM and at least 10 µM, respectively.
Regarding `C[C@H]1COCCN1c1nc(-c2ccc(NC(=O)NCC(F)F)cc2)cc(-c2cc(F)ccc2S(C)(=O)=O)n1` [Example 47, (S)-1-(2,2-difluoroethyl)-3-(4-(6-(5-fluoro-2-(methylsulfonyl)phenyl)-2-(3-methylmorpholino)pyrimidin-4-yl)phenyl)urea], the IC50 in test [1] is below 0.1 µM; at PI3Kγ, at least 10 µM.
